Measurements taken from US10420815B2, “Combinational therapy for synergistic inhibition of gram-positive and gram-negative bacteria” (priority 2015, dated 2019).
Read-outs that look alike come from different tables or passages of the source. Each block holds one molecule with its values, some of them ahead of it.

Experiments:
Type in all cases: cell-based, Staphylococcus aureus
MRSA 3823 = assay: microbe, parasite or virus in culture
From the text: (§1) MRSA (ATCC 33593), MSSA (ATCC 29213), and MRSA USA300 (BAA-1680) strains were purchased from the American Type Culture Collection (ATCC; Manassas, Va.). Eight clinical isolates of MRSA were obtained from the Culture Collection of Antimicrobial Resistant Microbes, Korea National Research Resource Center (KNRRC). Salmonella enterica Typhimurium LT2 was purchased from ATCC, and Escherichia coli O157:H7 is a kind gift from Dr. Sangryeol Ryu (Seoul National University, South Korea). All S. aureus strains were maintained in Trypticase Soy (TS) medium, and E. coli O157:H7 and Salmonella were routinely grown aerobically on Luria-Bertani (LB) media at 37° C. For measuring growth kinetics, an overnight culture of MRSA in Mueller-Hinton (MH) broth was diluted 100-fold in fresh MH broth and cultured until early exponential phase. The culture (200 μl) was transferred to each well of a sterile 96-well plate and incubated at 37° C. with bacitracin alone, alkyl gallate alone, and combination of bacitracin/alkyl gallates at various concentrations. The optical density at 600 nm (OD600) was measured every hour with FLUOstar® Omega (BMG Labtech, Germany).
(§2) Broth micro dilution assays were performed to determine the minimum inhibitory concentrations (MIC) accordance to the M7-A7 protocol of the Clinical and Laboratory Standards Institute (CLSI) guidelines^28. The susceptibility test was carried out with an initial bacterial inoculum of 1.5×10^5 CFU ml^−1. Alkyl gallates and bacitracin were serially diluted in a polystyrene 96 well plate and the plate was incubated at 37° C. for 24 h. Minimum bactericidal concentration (MBC) was determined by spotting 10 μl of cultures from MIC tests onto MH agar and incubated aerobically at 37° C.

MRSA 3865 = assay: microbe, parasite or virus in culture
From the text: as §1, §2

MRSA 3876 = assay: microbe, parasite or virus in culture
From the text: as §1, §2

MRSA 3799 = assay: microbe, parasite or virus in culture
From the text: as §1, §2

MRSA 3095 = assay: microbe, parasite or virus in culture; settings: Staphylococcus aureus; MRSA 3095 (human/skin); read-out: MIC
From the text: as §1, §2

MRSA 3795 = assay: microbe, parasite or virus in culture
From the text: as §1, §2

MRSA 3903 = assay: microbe, parasite or virus in culture
From the text: as §1, §2

MSSA (ATCC 29213) = assay: MIC (broth dilution) and MBC (spotting) of phenolic antioxidants and bacitracin; settings: for MIC: antioxidant alone
From the text: as §1, §2
(§3) MICs were determined with MRSA and methicillin-sensitive S. aureus (MSSA) using a broth dilution method as described above.
(§4) MRSA and MSSA were cultured overnight with antioxidants (0.5 μg/ml) and bacitracin at various concentrations and 10 μL of the culture was spotted on MH agar plates and incubated aerobically at 37° C. to observe the bacterial viability. The results in FIGS. 9A, 9B, 9C and 9D (photographs of plates) show the Minimal Bactericidal Concentrations (MBCs) for indicated antioxidants. Bacitracin killed MRSA and MSSA at concentrations greater than or equal to 2 μg/mi.

MRSA (ATCC 33593) = assay: microbe, parasite or virus in culture; settings: for MIC: Staphylococcus aureus
From the text: as §1, §2, §3, §4

MRSA 3A585 = assay: microbe, parasite or virus in culture
From the text: as §1, §2

[1] = tested on: MRSA (normal MRSA strain, not USA300); assay: MRSA growth (optical density) with bacitracin and phenolic antioxidants
From the text: as §1
MRSA were grown with bacitracin (0.002 μg/mL) with antioxidant (as shown) at 0.5 μg/mL.
FIG. 7A is growth with no added bacitracin or lauryl gallate.
The optical density of MRSA was measured after 18 h culture with bacitracin (0.002 μg/ml) and antioxidants (as indicated at 0.5 μg/ml). Also measured were controls with no additions, with bacitracin alone and with antioxidant alone. FIGS. 8A, 8B, 8C and 8D are graphs illustrating the results.

[2] = Staphylococcus aureus, MRSA 3823 (human/nose), read-out: MIC
[3] = Staphylococcus aureus, MRSA 3865 (human/skin), read-out: MIC
[4] = Staphylococcus aureus, MRSA 3876 (human/skin), read-out: MIC
[5] = Staphylococcus aureus, MRSA 3799 (human/nose), read-out: MIC
[6] = Staphylococcus aureus, MRSA 3795 (human/nose), read-out: MIC
[7] = Staphylococcus aureus, MRSA 3903 (human/skin), read-out: MIC
[8] = Staphylococcus aureus, read-out: MIC
[9] = MRSA, antioxidant alone, read-out: MIC

MIC (MRSA 3823; [2]): 32 µg/mL
MIC (MRSA 3865; [3]): ≥ 128 µg/mL
MIC (MRSA 3876; [4]): 0.25 µg/mL
MIC (MRSA 3799; [5]): 0.25 µg/mL
MIC (MRSA 3095): ≥ 128 µg/mL
MIC (MRSA 3795; [6]): 0.5 µg/mL
MIC (MRSA 3903; [7]): 64 µg/mL
Molecule: CCn1cc(C(=O)O)c(=O)c2cc(F)c(N3CCNCC3)cc21 [NOR, norfloxacin]

MIC (MSSA (ATCC 29213); [8]): > 1020 µg/mL
MIC (MRSA (ATCC 33593); [9]): > 1020 µg/mL
Molecule: O=C1C[C@@H](c2ccc(O)cc2)Oc2cc(O)cc(O)c21 [Narigenine, naringenin]

MIC (MRSA 3823; [2]): 128 µg/mL
MIC (MRSA 3865; [3]): 128 µg/mL
MIC (MRSA 3876; [4]): 128 µg/mL
MIC (MRSA 3799; [5]): ≥ 128 µg/mL
MIC (MRSA 3095): ≥ 64 µg/mL
MIC (MRSA 3795; [6]): ≥ 128 µg/mL
MIC (MRSA 3903; [7]): ≥ 128 µg/mL
MIC (MRSA 3A585; Staphylococcus aureus, MRSA 3A585 (human/blood), read-out: MIC): > 2 µg/mL
Molecule: Cc1onc(-c2ccccc2)c1C(=O)N[C@@H]1C(=O)N2[C@@H]1SC(C)(C)[C@@H]2C(=O)O [OXA, oxacillin]

MIC (MSSA (ATCC 29213); [8]): > 1020 µg/mL
MIC (MRSA (ATCC 33593); [9]): > 1020 µg/mL
Molecule: O=c1c(O)c(-c2ccc(O)c(O)c2)oc2cc(O)cc(O)c12 [Quercetin, quercetin]

MIC (MSSA (ATCC 29213); [8]): > 1020 µg/mL
MIC (MRSA (ATCC 33593); [9]): > 1020 µg/mL
Molecule: O=C(O)c1ccccc1O [Salicylic acid, salicylic acid]

MIC (MSSA (ATCC 29213); [8]): > 1020 µg/mL
MIC (MRSA (ATCC 33593); [9]): > 1020 µg/mL
Molecule: O=C1c2c(O)cc(O)cc2O[C@H](c2ccc(O)c(O)c2)[C@H]1O [Taxifolin, taxifolin]

MIC (MSSA (ATCC 29213); [8]): > 1020 µg/mL
MIC (MRSA (ATCC 33593); [9]): > 1020 µg/mL
Molecule: COc1cc(C(=O)O)ccc1O [Vanillic acid, vanillic acid]

Second part, the molecule before the results:

Molecule: COc1cc(/C=C/C(=O)O)cc(OC)c1O [Sinapic acid, sinapic acid]
MIC (MSSA (ATCC 29213); [8]): > 1020 µg/mL
MIC (MRSA (ATCC 33593)): > 1020 µg/mL

Molecule: CN(C)[C@@H]1C(O)=C(C(N)=O)C(=O)[C@@]2(O)C(O)=C3C(=O)c4c(O)cccc4[C@@](C)(O)[C@H]3C[C@@H]12 [TET, tetracycline]
MIC (MRSA 3823; Staphylococcus aureus, MRSA): 64 µg/mL
MIC (MRSA 3865; Staphylococcus aureus, MRSA): 32 µg/mL
MIC (MRSA 3876; Staphylococcus aureus, MRSA): 16 µg/mL
MIC (MRSA 3799; Staphylococcus aureus, MRSA): 64 µg/mL
MIC (MRSA 3795; Staphylococcus aureus, MRSA): 16 µg/mL
MIC (MRSA 3903; Staphylococcus aureus, MRSA): 128 µg/mL
MIC (MRSA 3A585; Staphylococcus aureus, MRSA): ≥ 8 µg/mL

Molecule: O=C(OC[C@H]1O[C@@H](OC(=O)c2cc(O)c(O)c(OC(=O)c3cc(O)c(O)c(O)c3)c2)[C@H](OC(=O)c2cc(O)c(O)c(OC(=O)c3cc(O)c(O)c(O)c3)c2)[C@@H](OC(=O)c2cc(O)c(O)c(OC(=O)c3cc(O)c(O)c(O)c3)c2)[C@@H]1OC(=O)c1cc(O)c(O)c(OC(=O)c2cc(O)c(O)c(O)c2)c1)c1cc(O)c(O)c(OC(=O)c2cc(O)c(O)c(O)c2)c1 [Tannic acid, tannic acid]
growth of MRSA with bacitracin plus antioxidant ([1]; bacitracin 0.002 μg/mL, antioxidant 0.5 μg/mL, FIG. 6): significantly inhibited the growth of MRSA
optical density of MRSA after 18 h culture: inhibition of growth in combination with bacitracin ([1]; bacitracin 0.002 μg/ml (ca. 0.0002 U), antioxidant 0.5 μg/ml, 18 h, FIG. 8): significantly inhibited MRSA
MIC (MSSA (ATCC 29213); [8]): 256 µg/mL
fold decrease of bacitracin MBC by antioxidant (MSSA (ATCC 29213); antioxidant 0.5 μg/ml, compared to bacitracin alone): 8 fold
MIC (MSSA (ATCC 29213)): 128 µg/mL
fold decrease of bacitracin MBC by antioxidant (MRSA (ATCC 33593); MRSA, antioxidant 0.5 μg/ml, compared to bacitracin alone): 4 fold
MIC (MRSA (ATCC 33593)): 512 µg/mL
MIC (MRSA (ATCC 33593); [9]): 1020 µg/mL

Molecule: gentamicin
MIC (MRSA 3823; MRSA 3823 (human/nose)): ≥128 µg/mL
MIC (MRSA 3865; MRSA 3865 (human/skin)): 32 µg/mL
MIC (MRSA 3876; MRSA 3876 (human/skin)): 32 µg/mL
MIC (MRSA 3799; MRSA 3799 (human/nose)): 32 µg/mL
MIC (MRSA 3795; MRSA 3795 (human/nose)): ≥128 µg/mL
MIC (MRSA 3903; MRSA 3903 (human/skin)): ≥128 µg/mL
MIC (MRSA 3A585; MRSA 3A585 (human/blood)): ≥8 µg/mL

Molecule: penicillin
MIC (MRSA 3823; MRSA 3823 (human/nose)): 16 µg/mL
MIC (MRSA 3865; MRSA 3865 (human/skin)): 16 µg/mL
MIC (MRSA 3876; MRSA 3876 (human/skin)): 16 µg/mL
MIC (MRSA 3799; MRSA 3799 (human/nose)): 8 µg/mL
MIC (MRSA 3795; MRSA 3795 (human/nose)): 16 µg/mL
MIC (MRSA 3903; MRSA 3903 (human/skin)): 32 µg/mL
